Results from patent US6403149B1, “Fluorinated ketones as lubricant deposition solvents for magnetic media applications” (3M Innovative Properties Company, priority 2001, dated 2002).
Read-outs that look alike come from different tables or passages of the source.

Tests used:
[1] = Solubility/miscibility of perfluoropolyether lubricants (Z-DOL, AM 3001) and phosphazene additive X-1P in fluorinated solvents
Experimental: The term “miscible” denotes that the lubricant and fluorinated solvent were miscible in all proportions, forming an essentially clear solution. Any number entry denotes solubility in the fluorinated solvent as percent by weight. The term “NT” denotes that the compound was not tested for solubility with the solvent.
Z-DOL was evaluated for solubility in the following fluorinated ketones: […]

[2] = Solubility of impurities (dioctyl phthalate, silicone oils) in fluorinated solvents; assay type: physicochemical
Experimental: In Comparative Examples C6-C10, the same “impurities” were evaluated for solubility in C6F14 (a perfluorocarbon), C4F9OCH3 (a hydrofluoroether), CF3CFHCFHCF2CF3 (a hydrofluorocarbon), C3F5HCl2 (a hydrochlorofluorocarbon), and […] (a chlorofluorocarbon), all fluorinated solvents outside the scope of this invention.
The term “NT” denotes that the impurity was not tested in the fluorinated solvent.

[3] = Short-term inhalation tests with rats (acute toxicity); assay type: in vivo
Source text: (§1) Additionally, the fluorinated ketones have low toxicity.

[4] = Cardiac sensitization no-effect level; conditions: in vivo, inhaled
Source text: as §1

[5] = solute FOMBLIN AM 3001 perfluoropolyether lubricant, miscible = miscible in all proportions
[6] = solute X-1P cyclic phosphazene additive, miscible = miscible in all proportions
[7] = solute Z-DOL perfluoropolyether lubricant, miscible = miscible in all proportions, essentially clear solution

| Compound | Solubility of AM 3001 in the solvent [1, 5] | Solubility of X-1P in the solvent [1, 6] | Solubility of Z-DOL in the solvent [1, 7] | also measured |
| --- | --- | --- | --- | --- |
| FC(C(F)C(F)(F)C(F)(F)F)C(F)(F)F (stereo not shown) [CF3CFHCFHCF2CF3, 1,1,1,2,3,4,4,5,5,5-decafluoropentane] | miscible | miscible | miscible |  |
| O=C(C(F)(C(F)(F)F)C(F)(F)F)C(F)(C(F)(F)F)C(F)(F)F [(CF3)2CFC(O)CF(CF3)2, 1,1,1,2,4,5,5,5,6,6,6-octafluoro-2,4-bis(trifluoromethyl)pentan-3-one] | miscible | 0.03 percent by weight | miscible |  |
| FC(F)(F)C(F)(F)C(F)(F)C(F)(F)C(F)(F)C(F)(F)F [C6F14, perfluorohexane] | miscible |  | miscible |  |
| O=C(C(F)(F)C(F)(F)F)C(F)(C(F)(F)F)C(F)(F)F [CF3CF2C(O)CF(CF3)2, 1,1,1,2,4,4,5,5,5-nonafluoro-2-trifluoromethyl-pentan-3-one] |  |  |  | Solubility of DOP in the solvent [2]: 0.024; Solubility of Silicone 100 cst in the solvent [2]: <0.01; Solubility of Silicone 1000 cst in the solvent [2]: <0.01; Solubility of Silicone 10000 cst in the solvent [2]: <0.01; Acute toxicity [3]: low acute toxicity; Solubility of AM 3001 in the solvent [1]: miscible; Solubility of X-1P in the solvent [1]: 0.03 percent by weight; Solubility of Z-DOL in the solvent [1]: miscible; "no-effect" level for cardiac sensitization [4]: > 150,000 ppm |
| dichloropentafluoropropane [C3F5HCl2] | miscible | miscible | miscible |  |
| COC(F)(F)C(F)(F)C(F)(F)C(F)(F)F [C4F9OCH3, perfluorobutyl methyl ether] | miscible | miscible | miscible |  |
| O=C(C(F)(F)C(F)(F)C(F)(F)F)C(F)(C(F)(F)F)C(F)(F)F [n-C3F7C(O)CF(CF3)2, 1,1,1,2,4,4,5,5,6,6,6-undecafluoro-2-trifluoromethylhexan-3-one] | miscible |  | miscible |  |
